In patent US20090012179A1, “Use of Tyrphostins to Stimulate Neurite Outgrowth” (priority 2004, published 2009):
Entries after “also recorded” stand apart in the source; their conditions may differ.

Assays:
ERK = ERK phosphorylation in primary rat SNc dopaminergic neurons, p-ERK staining; assay type: cell-based; settings: primary rat SNc neuron culture, A9 1 μM, 1 hour
Description: Primary cultures of rat embryonic SNc neurons were stimulated with vehicle (NT) or A9 (1 μM) for 1 hour and then stained for tyrosine hydroxylase (TH) and phospho-ERK (p-ERK). Images were digitally captured with an Olympus CX640 fluorescence microscope.
Primary Neuronal Cultures: The substantia nigra or striatal region is dissected from 4 day-old Sprague-Dawley rats and incubated in minimum essential medium (MEM) containing 20 U/ml papain for 2 hours at 37° C. The tissue is then triturated using fire-polished Pasteur pipettes in MEM supplemented with 10% fetal bovine serum, 0.45% glucose, […] insulin, 0.5 mM glutamine, 100 U/ml penicillin, and 100 μg/ml streptomycin. Cells are plated on 18 mm diameter poly-D-lysine-coated glass coverslips (Fisher 12-545-84 18cir-1D) at a density of 75,000 cells per coverslip for immunofluorescence imaging or in 12-well or 6-well tissue culture plates for immunoblotting studies. […]
Cell preparation for microscopy: Neuroblastoma cells and rat striatal neurons are grown on glass coverslips and treated with poly-D-Lysine. […] The samples are examined by an Olympus CX640 fluorescence microscope, or scanned with a Leica TCS SP confocal laser scanning microscope. Images are digitally captured and recorded with computer. […]

SJL mice with EAE = experiment: Axonal damage in SJL mice with EAE, SMI312/SMI32 immunohistochemistry of spinal cord; assay type: in vivo, mouse
Description: A9 (or the vehicle control) was administered orally.
Following treatment, the thoracic spinal cords were fixed in 4% PFA, embodied in paraffin and sectioned for IHC.

CC(C)(C)c1cc(C=C(C#N)C#N)cc(C(C)(C)C)c1O [A9, tyrphostin A9]
ERK phosphorylation/activation in dopaminergic neurons (ERK): induced robust ERK activation | ERK phosphorylation/activation in dopaminergic neurons (ERK; listed as tyrphostin A9): induced ERK phosphorylation | Damaged axons, SMI32 staining (SJL mice with EAE; SJL mice with EAE, 1 μg A9 orally): effectively reduced; also recorded: reduces the presence of damaged axons | Axonal damage in the spinal cord (SJL mice with EAE; SJL mice, EAE induced with PLP139-151, 1 μg A9 orally): reduced the axonal damage | Ability to cross the blood brain barrier (SJL mice with EAE; after oral administration, inferred from CNS effect in EAE mice): has the ability to cross the blood brain barrier
